Results taken from patent US20180050993A1, “NOVEL FLUORINATED DERIVATIVES AS EGFR INHIBITORS USEFUL FOR TREATING CANCERS” (Trillium Therapeutics Inc., priority 2015, published 2018).
Structures can show the parent of a compound that is named as a salt. Where two headings read alike, the source gives them in different places.

Experiments:
EPHA6 [1] = target: T1, EPHA6 (Homo sapiens, UniProt Q9UF33); assay: Binding constants (Kd) for EPHA6, kinase competition binding with qPCR readout
T1 sequence (Q9UF33 23-1036): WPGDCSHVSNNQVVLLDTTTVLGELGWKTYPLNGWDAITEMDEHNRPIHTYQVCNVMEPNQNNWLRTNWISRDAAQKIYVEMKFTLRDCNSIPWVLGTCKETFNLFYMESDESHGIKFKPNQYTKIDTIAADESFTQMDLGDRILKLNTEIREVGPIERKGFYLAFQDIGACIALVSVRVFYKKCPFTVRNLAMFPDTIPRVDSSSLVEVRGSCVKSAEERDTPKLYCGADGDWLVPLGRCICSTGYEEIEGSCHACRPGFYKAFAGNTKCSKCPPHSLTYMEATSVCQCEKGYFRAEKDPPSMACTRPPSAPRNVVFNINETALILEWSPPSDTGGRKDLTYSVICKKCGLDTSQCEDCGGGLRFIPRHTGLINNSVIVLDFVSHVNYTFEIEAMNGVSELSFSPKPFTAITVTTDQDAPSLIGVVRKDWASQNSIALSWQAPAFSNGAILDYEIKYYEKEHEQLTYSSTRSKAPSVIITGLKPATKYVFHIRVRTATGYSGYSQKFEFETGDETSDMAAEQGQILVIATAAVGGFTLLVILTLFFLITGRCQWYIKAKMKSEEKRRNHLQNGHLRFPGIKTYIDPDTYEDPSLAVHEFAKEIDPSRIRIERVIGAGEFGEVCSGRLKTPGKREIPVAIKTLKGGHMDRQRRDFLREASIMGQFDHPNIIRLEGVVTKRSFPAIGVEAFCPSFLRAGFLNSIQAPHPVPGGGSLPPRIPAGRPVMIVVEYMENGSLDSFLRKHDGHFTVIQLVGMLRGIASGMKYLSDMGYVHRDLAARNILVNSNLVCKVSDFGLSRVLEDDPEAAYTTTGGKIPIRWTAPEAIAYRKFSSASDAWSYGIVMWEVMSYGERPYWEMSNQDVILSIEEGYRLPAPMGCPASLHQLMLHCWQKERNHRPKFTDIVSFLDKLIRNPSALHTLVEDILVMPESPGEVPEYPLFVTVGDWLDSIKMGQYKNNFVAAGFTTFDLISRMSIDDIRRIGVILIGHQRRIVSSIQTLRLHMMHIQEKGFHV

[2] = Brain and plasma concentrations after oral gavage in rat, sampling to 4 hours (Table 4); format: in vivo; details: Table 4 (4 hours); for Kp at 4 h: brain/plasma, po, 50 mg/kg
EPHA6 [3] = target: T1, EPHA6; assay: Kinome screen at 300 nM (qPCR competition binding); design: purchased DiscoveRx; host or cells: E. coli BL21-derived (T7 phage) or HEK-293; details: result in words
[4] = male, Sprague-Dawley (SD), brain tissue, PO 50 mg/kg

`Fc1ccc(Nc2ncnc3cc(OCCOC(F)F)c(OCCOC(F)F)cc23)c(F)c1Cl` [Compound 2D•HCl, N-(3-chloro-2,4-difluoro-phenyl)-6,7-bis[2-(difluoromethoxy)ethoxy]quinazolin-4-amine] gave a Kd (EPHA6 [1]) of 2.5 nM, an AUClast ([2]; brain tissue, PO 50 mg/kg) of 25272 ng·h/g and a Cmax [2, 4] of 8040 ng/g. For the same compound, the Tmax [2, 4] was 4 h, the Kp at 4 h ([2]; male, Sprague-Dawley (SD), read-out: AUCLast Ratio (Brain/Plasma)) was 2.05 and the Kp at 4 h ([2]; male, Sprague-Dawley (SD), read-out: Cmax Ratio (Brain/Plasma)) was 2.01. The “selectivity over erlotinib for the ephrin receptor kinase, EPHA6” value (EPHA6 [3]) was “did show selectivity over erlotinib”.
